This is an account of results in patent US20250179103A1, “6-OXODECAHYDROPYRROLO[1,2-A][1,5]DIAZOCINE AND 6-OXODECAHYDRO-4H-PYRROLO[2,1-D][1,5]THIAZOCINE DERIVATIVES AS STAT3 AND STAT6 MODULATORS FOR THE TREATMENT OF CANCER AND INFLAMMATORY CONDITIONS” (Recludix Pharma, Inc., priority 2022, published 2025).

The structures appear in SMILES notation.

The target in experiment [1] is T1, Recombinant STAT6 protein (STAT6(W123-T658)) (Homo sapiens, UniProt P42226).
T1 construct: Recombinant STAT6 protein (STAT6(W123-T658))
T1 sequence (P42226 123-658): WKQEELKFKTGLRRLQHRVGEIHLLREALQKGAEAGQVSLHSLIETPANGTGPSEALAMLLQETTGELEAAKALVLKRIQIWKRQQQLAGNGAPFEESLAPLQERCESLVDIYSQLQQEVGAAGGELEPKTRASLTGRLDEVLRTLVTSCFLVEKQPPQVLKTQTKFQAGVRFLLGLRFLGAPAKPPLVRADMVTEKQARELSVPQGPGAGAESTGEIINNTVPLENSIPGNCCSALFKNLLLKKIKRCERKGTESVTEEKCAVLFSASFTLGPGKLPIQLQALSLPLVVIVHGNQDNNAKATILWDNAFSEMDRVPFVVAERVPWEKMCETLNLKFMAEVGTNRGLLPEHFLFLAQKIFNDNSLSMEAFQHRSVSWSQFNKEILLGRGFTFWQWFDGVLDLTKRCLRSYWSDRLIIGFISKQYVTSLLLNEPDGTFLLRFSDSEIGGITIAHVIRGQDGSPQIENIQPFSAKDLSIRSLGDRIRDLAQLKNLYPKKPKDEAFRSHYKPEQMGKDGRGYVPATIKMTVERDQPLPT
The experiment in a line: STAT6 Fluorescence Polarization (FP) Assay. The format is binding. The note with it: STAT6(W123-T658) 250 nM, probe 5-FAM-ApYKPFQDLI-NH2 2 nM, 45-minute incubation. In a few lines:
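Displacement of a fluorescent phosphotyrosine peptide (5-FAM-ApYKPFQDLI-NH2, 2 nM) from STAT6(W123-T658) (250 nM), 1% DMSO, pH 7.4 HEPES buffer. After 45 min at room temperature, polarization (mP) was plotted versus log compound concentration and fitted by nonlinear regression to give IC50.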

Experiment [2] has as its target T2, Recombinant STAT3 protein (STAT3(G127-I722)) (Homo sapiens, UniProt P40763).
T2 construct: Recombinant STAT3 protein (STAT3(G127-I722))
The experiment in a line: STAT3 Fluorescence Polarization (FP) Assay. The format is binding. The note with it: STAT3(G127-I722) 25 nM, probe 5-FAM-GpYLPQTV-NH2 2 nM, 45-minute incubation. A digest of the protocol: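 STAT3(G127-I722), 25 nM, was mixed with 2 nM 5-FAM-GpYLPQTV-NH2 probe in HEPES pH 7.4 buffer with 1% DMSO and serially diluted compound. FP (mP) was read after 45 min at room temperature. IC50 came from nonlinear regression.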

T2 sequence (P40763 127-722): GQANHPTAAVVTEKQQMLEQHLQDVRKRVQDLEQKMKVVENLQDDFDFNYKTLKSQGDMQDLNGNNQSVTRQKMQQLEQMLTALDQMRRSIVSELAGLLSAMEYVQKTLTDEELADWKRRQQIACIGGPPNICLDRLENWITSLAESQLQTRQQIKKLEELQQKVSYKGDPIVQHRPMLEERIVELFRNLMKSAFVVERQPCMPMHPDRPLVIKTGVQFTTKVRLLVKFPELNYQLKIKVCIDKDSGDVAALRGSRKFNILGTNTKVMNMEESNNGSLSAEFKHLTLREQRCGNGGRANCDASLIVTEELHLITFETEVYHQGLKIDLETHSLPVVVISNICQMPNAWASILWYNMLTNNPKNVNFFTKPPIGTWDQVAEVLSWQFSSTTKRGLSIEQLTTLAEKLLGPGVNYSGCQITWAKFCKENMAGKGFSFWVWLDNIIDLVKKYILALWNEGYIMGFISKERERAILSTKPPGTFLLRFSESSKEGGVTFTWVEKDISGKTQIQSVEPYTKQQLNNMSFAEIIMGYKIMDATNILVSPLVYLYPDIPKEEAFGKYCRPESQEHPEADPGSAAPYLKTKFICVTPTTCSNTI

As for `CC(=O)N1CC[C@H]2CC[C@@H](C(=O)N3CCC(c4cccnc4)C3)N2C(=O)[C@@H](NC(=O)c2ccc3ccc(C(F)P(=O)(O)O)cc3c2)C1` (stereo partly drawn) [Compound 355, ((7-(((5S,8S,10a R)-3-acetyl-6-oxo-8-(3-(pyridin-3-yl)pyrrolidine-1-carbonyl)decahydro-pyrrolo [1,2-a][1,5]diazocin-5-yl)carbamoyl)naphthalen-2-yl)fluoromethyl) phosphonic acid], the IC50 in experiment [1] was 300 to 3000 nM; in experiment [2], 1000 to 10000 nM.

For the compound `CC(=O)N1CC[C@H]2CC[C@@H](C(=O)Nc3ccc(-n4ccccc4=O)cc3)N2C(=O)[C@@H](NC(=O)c2cc3cc(C(F)(F)P(=O)(O)O)ccc3[nH]2)C1` [Compound 103, ((2-(((5S,8S,10aR)-3-acetyl-6-oxo-8-((4-(2-oxopyridin-1(2H)-yl)phenyl)carbamoyl)decahydropyrrolo[1,2-a][1,5]diazocin-5-yl)carbamoyl)-1H-indol-5-yl)difluoromethyl)phosphonic acid], the IC50 was in the range of 3000 to 30000 nM in experiment [1] and 1000 to 10000 nM in experiment [2].

Turning to `O=C(N[C@H]1CN(C(=O)NCc2ccccc2)CC[C@H]2CC[C@@H](C(=O)Nc3ccc(-c4ccccc4)cc3)N2C1=O)c1cc2cc(C(F)(F)P(=O)(O)O)ccc2s1` [Compound 251, ((2-(((5S,8S,10aR)-8-([1,1′-biphenyl]-4-ylcarbamoyl)-3-(benzylcarbamoyl)-6-oxodecahydropyrrolo[1,2-a][1,5]diazocin-5-yl)carbamoyl)benzo[b]thiophen-5-yl)difluoromethyl)phosphonic acid], the concentration for half-maximal inhibition (IC50) in experiment [1] was 300 to 3000 nM; in experiment [2], 100 to 1000 nM.

In the case of `COc1ccc2onc(C(=O)N3CC[C@H]4CC[C@@H](C(=O)N5CCOCC5)N4C(=O)[C@@H](NC(=O)c4ccc5ccc(C(F)P(=O)(O)O)cc5c4)C3)c2c1` (stereo partly drawn) [Compound 362, (fluoro(7-(((5S,8S,10aR)-3-(5-methoxybenzo[d]isoxazole-3-carbonyl)-8-(morpholine-4-carbonyl)-6-oxodecahydropyrrolo [1,2-a][1,5]diazocin-5-yl)carbamoyl)naphthalen-2-yl)methyl)phosphonic acid], the IC50 in experiment [1] was no more than 300 nM; in experiment [2] it was greater than 10000 nM.

`Cc1ccc2[nH]nc(C(=O)N3CC[C@H](NC(=O)c4ccc5ccc(C(F)(F)P(=O)(O)O)cc5c4)C(=O)N4[C@H](CC[C@H]4C(=O)N4C[C@H](c5ccccc5)[C@@H](C#N)C4)C3)c2c1` (relative stereo) [Compound 233, ((7-(((5S,8S,10aR)-8-(rel-tran)-3-cyano-4-phenylpyrrolidine-1-carbonyl)-2-(5-methyl-1H-indazole-3-carbonyl)-6-oxodecahydropyrrolo[1,2-a][1,4]diazocin-5-yl)carbamoyl)naphthalen-2-yl)difluoromethyl)phosphonic acid]: the values for the IC50 in experiment [1] and in experiment [2] were no more than 300 nM and 1000 to 10000 nM, respectively.

Turning to `C[C@H](CC(=O)N1CC[C@H]2CC[C@@H](C(=O)N3CCCC3)N2C(=O)[C@@H](NC(=O)c2cc3cc(C(F)(F)P(=O)(O)O)ccc3s2)C1)c1ccccc1` [Compound 260, (difluoro(2-(((5S,8S,10aR)-6-oxo-3-((R)-3-phenylbutanoyl)-8-(pyrrolidine-1-carbonyl)decahydropyrrolo[1,2-a][1,5]diazocin-5-yl)carbamoyl)benzo[b]thiophen-5-yl)methyl)phosphonic acid], the IC50 fell in the range of 300 to 3000 nM in experiment [1] and 100 to 1000 nM in experiment [2].

For `CC(=O)N1CC[C@H]2CC[C@@H](C(=O)N(C)C3CCCCC3)N2C(=O)[C@@H](NC(=O)c2cc3cc(C(F)(F)P(=O)(O)O)ccc3[nH]2)C1` [Compound 134], the figures for the IC50 in experiment [1] and in experiment [2] were 300 to 3000 nM and 1000 to 10000 nM, respectively.

Regarding `O=C(N[C@H]1CSCC[C@H]2CC[C@@H](C(=O)N3CC(c4cccnc4)C3)N2C1=O)c1cc2cc(C(F)(F)P(=O)(O)O)ccc2s1` [Compound 405, (difluoro(2-(((5R,8S, 10aR)-6-oxo-8-(3-(pyridin-3-yl)azetidine-1-carbonyl)octahydro-4H-pyrrolo[2,1-d][1,5]thiazocin-5-yl)carbamoyl)benzo[b]thiophen-5-yl)methyl) phosphonic acid], the IC50 in experiment [1] was 3000 to 30000 nM; in experiment [2] it was no more than 100 nM.

Regarding `CC(=O)N1CC[C@H]2CC[C@@H](C(=O)N3CCCC3Cc3ccc(F)cc3)N2C(=O)[C@@H](NC(=O)c2cc3cc(C(F)(F)P(=O)(O)O)ccc3[nH]2)C1` (stereo partly drawn) [Compound 130, ((2-(((5S,8S,10aR)-3-acetyl-8-(2-(4-fluorobenzyl)pyrrolidine-1-carbonyl)-6-oxodecahydropyrrolo[1,2-a][1,5]diazocin-5-yl)carbamoyl)-1H-indol-5-yl)difluoromethyl)phosphonic acid], the results for the IC50 in experiment [1] and in experiment [2] were 300 to 3000 nM and 1000 to 10000 nM, respectively.

With `C[C@@H](C(=O)N1CC[C@H]2CC[C@@H](C(=O)Nc3ccc(-c4ccccc4)cc3)N2C(=O)[C@@H](NC(=O)c2cc3cc(C(F)(F)P(=O)(O)O)ccc3[nH]2)C1)c1ccccc1` [Compound 254, ((2-(((5S,8S,10aR)-8-([1,1′-biphenyl]-4-ylcarbamoyl)-6-oxo-3-((R)-2-phenylpropanoyl)decahydropyrrolo[1,2-a][1,5]diazocin-5-yl)carbamoyl)-1H-indol-5-yl)difluoromethyl)phosphonic acid], the IC50 in experiment [1] lay in the range of 300 to 3000 nM; in experiment [2] it was 1000 to 10000 nM.

For the compound `Cc1ccc2onc(C(=O)N3CC[C@H]4CC[C@@H](C(=O)N5C[C@H](c6cc[nH]c(=O)c6)CC56CC6)N4C(=O)[C@@H](NC(=O)c4ccc5ccc(C(F)(F)P(=O)(O)O)cc5c4)C3)c2c1` [Compound 381, (difluoro(7-(((5S,8S, 10aR)-3-(5-methylbenzo[d]isoxazole-3-carbonyl)-6-oxo-8-((S)-6-(2-oxo-1,2-dihydropyridin-4-yl)-4-azaspiro[2.4]heptane-4-carbonyl)decahydropyrrolo [1,2-a][1,5]diazocin-5-yl)carbamoyl)naphthalen-2-yl)methyl)phosphonic acid], the IC50 in experiment [1] is no more than 300 nM; in experiment [2] it was 1000 to 10000 nM.

In the case of `CC(=O)N1CC[C@H]2CC[C@@H](C(=O)N(C)c3ccccc3)N2C(=O)[C@@H](NC(=O)c2ccc3cc(P(=O)(O)O)ccc3c2)C1` [Compound 113, (6-(((5S,8S,10aR)-3-acetyl-8-(methyl(phenyl)carbamoyl)-6-oxodecahydropyrrolo[1,2-a][1,5]diazocin-5-yl)carbamoyl)naphthalen-2-yl)phosphonic acid], the results for the IC50 in experiment [1] and in experiment [2] were greater than 30000 nM and greater than 10000 nM, respectively.

Turning to `CC(=O)N1CC[C@H]2CC[C@@H](C(=O)N3C[C@H](c4ccccc4)[C@@H](O)C3)N2C(=O)[C@@H](NC(=O)c2cc3cc(C(F)(F)P(=O)(O)O)ccc3s2)C1` (relative stereo) [Compound 60, ((2-(((5S,8S,10aR)-3-acetyl-8-((rel-trans)-3-hydroxy-4-phenylpyrrolidine-1-carbonyl)-6-oxodecahydropyrrolo[1,2-a][1,5]diazocin-5-yl)carbamoyl)benzo[b]thiophen-5-yl)difluoromethyl)phosphonic acid], the 50% inhibitory concentration (IC50) is no more than 300 nM in experiment [1] and 1000 to 10000 nM in experiment [2].

Turning to `CC(=O)N1CC[C@H]2CC[C@@H](C(=O)N3CC(c4cccnc4)C3)N2C(=O)[C@@H](NC(=O)c2cc3cc(C(F)(F)P(=O)(O)O)ccc3s2)C1` [Compound 122, ((2-(((5S,8S,10aR)-3-acetyl-6-oxo-8-(3-(pyridin-3-yl)azetidine-1-carbonyl)decahydropyrrolo[1,2-a][1,5]diazocin-5-yl)carbamoyl)benzo[b]thiophen-5-yl)difluoromethyl)phosphonic acid], the figures for the IC50 in experiment [1] and in experiment [2] were 300 to 3000 nM and no more than 100 nM, respectively.

As to `N#C[C@@H]1CN(C(=O)[C@@H]2CC[C@@H]3CCN(CC(F)F)C[C@H](NC(=O)c4cc5cc(C(F)P(=O)(O)O)ccc5s4)C(=O)N32)C[C@H]1c1ccccc1` (stereo partly drawn) [Compound 395, ((2-(((5S,8S,10aR)-8-((3S,4R)-3-cyano-4-phenyl-pyrrolidine-1-carbonyl)-3-(2,2-difluoroethyl)-6-oxodecahydropyrrolo [1,2-a][1,5]diazocin-5-yl)carbamoyl)benzo[b]thiophen-5-yl)fluoromethyl) phosphonic acid], the IC50 in experiment [1] is no more than 300 nM; in experiment [2], 1000 to 10000 nM.

Turning to `CC(=O)N1CC[C@H]2CC[C@@H](C(=O)N(C)c3ccccc3)N2C(=O)[C@@H](NC(=O)c2cc3cc(C(F)(F)P(=O)(O)O)cnc3s2)C1` [Compound 110, ((2-(((5S,8S,10aR)-3-acetyl-8-(methyl(phenyl)carbamoyl)-6-oxodecahydropyrrolo[1,2-a][1,5]diazocin-5-yl)carbamoyl)thieno[2,3-b]pyridin-5-yl)difluoromethyl)phosphonic acid], the figures for the IC50 in experiment [1] and in experiment [2] were 3000 to 30000 nM and 1000 to 10000 nM, respectively.
